Key:
[1] = diafiltration test, kidney model using an ultrafiltration membrane (molecular weight cutoff 30,000); assay type: in vitro ADME
Description: The mechanism by which the carbon monoxide removal agent according to the present invention is excreted from blood into urine via kidneys was examined by way of a kidney model using an ultrafiltration membrane. Specifically, an experiment was performed as follows.
FeTPPS, RSA, and Py3CD (procured from the same firms as in EXAMPLE 3) were respectively dissolved in a PBS buffer (pH 7.4) to prepare 0.22 μM solutions. Also, ultraviolet-visible absorption spectra were measured using the same apparatuses as in EXAMPLE 1. As the ultrafiltration membrane, a stirred cell (Model 8050 made by Millipore Corp.) with an ultrafiltration membrane with a molecular weight cutoff of 30,000 attached was used.
Equivalent amounts of the FeTPPS solution and the RSA solution were mixed to prepare an equimolar mixture, and the equimolar mixture solution was placed in the stirred cell that was set above a recovery beaker. While pressurizing with nitrogen gas, a filtrate was recovered at every fixed amount and subject to ultraviolet-visible absorption spectral analysis.
At a point at which 20 mL of the filtrate was recovered, the Py3CD solution was added so that the molar amount of Py3CD was equal to the molar amount of each of FeTPPS and RSA in the residual solution. […]

Serum albumin (RSA) = molecular target: T1, Serum albumin (RSA) (Rattus norvegicus, UniProt P02770); assay: ultraviolet-visible titration of FeTPPS solution with RSA solution; assay type: binding; conditions: 5×10^−6 M FeTPPS, PBS buffer pH 7.4
T1 construct: purchased SIGMA; Co., Ltd
Text: Serum albumin (RSA) is a protein component of the highest content in blood and is known to have a property of taking in various hydrophobic molecules. FeTPPS is not an exception and is known to bind strongly to serum albumin (see, for example, V. E. Yushmanov et al, Mag. Res. Imaging, 14, 255-261 (1996), T. T. Tominaga et al, J. Inorg. Biochem., 65, 235-244 (1997), etc.). The effect of inducing urinary excretion of FeTPPS by Py3CD was thus compared with that by RSA. Specifically, an experiment was performed as follows.
FeTPPS was dissolved in a PBS buffer (pH 7.4) to prepare a 5 μM solution, and Py3CD and RSA (made by SIGMA. Co., Ltd.) were separately dissolved in the PBS buffer (pH 7.4) to prepare respective stock solutions. Ultraviolet-visible absorption spectra were measured with the same apparatuses as those used in EXAMPLE 1.
The FeTPPS solution was placed in a cuvette, ultraviolet-visible absorption spectra were measured while adding fixed amounts of the RSA solution to the cuvette, and at a point at which changes reached saturation, ultraviolet-visible absorption spectra were measured while adding the Py3CD solution in place of the RSA solution. FIG. 4(a) is a diagram showing the changes in the ultraviolet-visible absorption spectra and FIG. 4(b) is a titration plot.

[2] = effect of the cyclodextrin dimer on the urinary excretion of porphyrins, absorbance at 420 nm of urine; assay type: in vivo; conditions: rat, medical agent containing just the porphyrin (0.5 mM) administered, before Py3CD
Description: The influence that the cyclodextrin dimer has on the excretion of the carbon monoxide removal agent in urine was examined. Specifically, each of the porphyrins was administered solitarily into a rat and absorbance at 420 nm, at which each administered porphyrin has a strong absorption band, was measured to examine the amount of the porphyrin excreted into urine. Also, after administration of each porphyrin, the cyclodextrin dimer was administered and the influence thereof was examined. Specifically, an experiment was performed as follows.
Commercially available FeTPPS (made by Frontier Scientific Inc.) and TPPS (made by Tokyo Chemical Industry Co., Ltd.) with the central metal removed from FeTPPS were respectively dissolved separately to a concentration of 0.5 mM in a PBS buffer (pH 7.4) and thereby prepared as medical agents. Also, a Py3CD solution was prepared by dissolving Py3CD to a concentration of 0.6 mM in the PBS buffer (pH 7.4). Further, ultraviolet-visible absorption spectra were measured using the same apparatuses as in EXAMPLE 1.
The medical agent containing FeTPPS was administered continuously to a rat by the syringe pump (1 mL/min). By the same method as in EXAMPLE 1, urine was sampled every 30 minutes from the start of administration and the change with time of the absorbance at 420 nm was examined. […]

T1 sequence (P02770 25-608): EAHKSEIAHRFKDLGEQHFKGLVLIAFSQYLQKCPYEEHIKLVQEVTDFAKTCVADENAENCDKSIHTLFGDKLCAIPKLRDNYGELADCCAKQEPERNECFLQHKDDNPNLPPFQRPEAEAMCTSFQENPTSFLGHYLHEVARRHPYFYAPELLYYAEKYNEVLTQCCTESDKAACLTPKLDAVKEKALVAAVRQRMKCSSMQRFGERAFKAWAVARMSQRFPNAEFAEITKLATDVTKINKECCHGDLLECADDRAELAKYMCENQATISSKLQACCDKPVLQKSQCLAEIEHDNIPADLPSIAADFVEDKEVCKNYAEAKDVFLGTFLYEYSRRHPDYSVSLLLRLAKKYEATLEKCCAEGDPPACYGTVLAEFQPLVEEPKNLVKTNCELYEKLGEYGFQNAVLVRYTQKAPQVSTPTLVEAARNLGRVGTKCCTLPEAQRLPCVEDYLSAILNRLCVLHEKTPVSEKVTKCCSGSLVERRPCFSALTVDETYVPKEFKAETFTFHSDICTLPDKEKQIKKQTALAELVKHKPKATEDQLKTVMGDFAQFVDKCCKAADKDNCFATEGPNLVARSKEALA

| Compound | passage through the ultrafiltration membrane ([1]; FeTPPS held by RSA (equimolar mixture), before Py3CD addition) | passage through the ultrafiltration membrane ([1]; FeTPPS released from RSA by addition of Py3CD and included in Py3CD) | RSA amount at which the spectral changes reach saturation (Serum albumin (RSA)) | number of FeTPPS molecules that can bind to a single RSA molecule (Serum albumin (RSA)) | excretion of porphyrin in urine [2] |
| --- | --- | --- | --- | --- | --- |
| 5,10,15,20-tetrakis(4-sulfonatophenyl)porphyrin (II) iron complex [FeTPPS] | cannot pass through the ultrafiltration membrane | capable of passing through the ultrafiltration membrane | approximately ⅓ | approximately three | not excreted at all in urine |
| O=S(=O)(O)c1ccc(-c2c3nc(c(-c4ccc(S(=O)(=O)O)cc4)c4ccc([nH]4)c(-c4ccc(S(=O)(=O)O)cc4)c4nc(c(-c5ccc(S(=O)(=O)O)cc5)c5ccc2[nH]5)C=C4)C=C3)cc1 [TPPS, reference compound] |  |  |  |  | not excreted at all in urine |
